From patent US9642925B2, “Magnetic nanoparticle formulations, methods for making such formulations, and methods for their use” (Sanford Research/USD, priority 2010, dated 2017) come the findings set out here.

For experiment [1], the system named is A2780CP ovarian cancer cells. In words: In vitro cytotoxicity (MTT assay), A2780CP. Conditions: A2780C/P, 48 h, 2 days, read-out: IC50 (50% cell growth inhibitory concentration). Type of experiment: cell-based. The method, then: (§1) In vitro cytotoxicity was assessed using a standard 3-(4,5-dimethylthiazol-2-yl)-2,5-diphenyltetrazolium bromide (MTT) based colorimetric assay (CellTiter 96 AQeous, Promega, Madison, Wis., USA). Ovarian (A2780CP), breast (MDA-MB-231), and prostate (PC3) cancer cells were used for this experiment. Cells (5000 cells/well in 100 μl media) were cultured in RPMI-1640 or DMEM medium containing 10% FBS and 1% penicillin-streptomycin in 96-well plates and allowed to attach overnight. The media was replaced with fresh media containing different concentrations (2.5-40 μM) of CUR and CUR containing MNPs (F127250-CUR). Equivalent amounts of DMSO or F127250 MNPs without drug in PBS were used as control. These plates were incubated at 37° C. for 2 days. After day 2, the media was replaced with 100 μl fresh media and the MTT reagent (25 μl/well) was added to each well and plates were incubated for 3 hrs at 37° C. in an incubator. The color intensity was measured at 492 nm using a microplate reader (BioMate 3 UV-Vis Spectrophotometer, Thermo Electron Corporation, Hudson, N.H., USA). The anti-proliferation potential of CUR and F127250-CUR treatments was calculated as a percentage of cell growth with respect to the DMSO and F127250 formulation in PBS controls. Standard deviations were obtained from 6 replicates.
Background: Tetrazolium assays rely on reduction of a dye to a coloured formazan, in cell work by metabolically active cells.

Experiment [2] has as its system MDA-MB-231 breast cancer cells. The experiment in a line: In vitro cytotoxicity (MTT assay), MDA-MB-231. Conditions: Homo sapiens, 48 h; MDA-MB-231, 2 days; read-out: IC50 (50% cell growth inhibitory concentration). Format: cell-based. The method, then: as §1
Experiment [3] deals with PC3 prostate cancer cells. The experiment in a line: In vitro cytotoxicity (MTT assay), PC3. Type of experiment: cell-based. To be noted: 48 h; PC3, 2 days; read-out: IC50 (50% cell growth inhibitory concentration). The method, then:
as §1

Experiment [4] has as its system PARP. In words: Western blot for PARP cleavage in PC3 cells. Conditions: 20 μM. Type of experiment: cell-based. The method, then:
The immunoblot analyses were performed to determine anti-cancer effects of our formulation at the molecular level. For these experiments, cancer cells were collected after 2 days of treatment with 10 μM and 20 μM CUR and 10 μM and 20 μM of F127250-CUR and processed for protein extraction and Western blotting using standard procedures. The cell lysates were separated by gel electrophoresis on polyacrylamide gels containing sodium dodecyl sulfate and then transferred to PVDF membranes. The membranes were blocked with Tris-buffered saline (TBS) containing 5% (w/v) skimmed milk. After washing thrice with Tween 20, the membranes were incubated overnight with primary antibody specific to Bcl-xL or PARP at 4° C. After washing, the membranes were incubated for 1 hr with secondary antibody (Promega, Madison Wis., USA). Protein bands were visualized using the Lumi-Light Detection Kit (Roche, Nutley, N.J., USA) and detected with a BioRad Gel Doc (BioRad, Hercules, Calif., USA).
On the technique in general: In western blotting, separated proteins are transferred to a membrane and probed.

For experiment [5], the system named is PC3 cancer cells. In words: Ultrastructural changes in cancer cells by TEM. Format: cell-based. Conditions: 20 μM. The method, then:
The uptake (internalization) pattern of nanoparticles was monitored by transmission electron microscopy (TEM) to further validate the cellular uptake capability of magnetic nanoparticles in cancer cells which was visually observed. For this experiment, aforementioned cells (1×10^7 cells per 150 mm plate) were incubated with 1 mg of particles in 20 ml media for 6 hrs. The treated cells were centrifuged and fixed with standard formaldehyde (4%)-glutaraldehyde (1%) fixative solution followed by OsO4 fixative solution. Next, cells were dehydrated in a graded series of acetone and embedded in Spurr resin. These cell-containing resin blocks were sectioned using an ultramicrotome and ultrathin sections (70-90 nm thickness) were transferred onto TEM grid (grid size: 97 μm) (Ted Pella Inc., Redding, Calif., USA). The grids were processed with uranyl acetate and lead acetate solutions to visualize cellular ultra structures.
The variation of ultrastructural changes in the cancer cells upon exposure to control (DMSO and F127250 formulation), 20 μM CUR or 20 μM F127250-CUR were observed by transmission electron microscopy (TEM) analysis.

In experiment [6] the test system is Bcl-xL. In words: IHC of Bcl-xL expression in pancreatic tumor xenografts. Conditions: intra-tumoral at day 20. Format: in vivo, athymic nude mice. The method, then: (§2) FIG. 15. The effect of MNP-curcumin formulation on the expression of Bcl-xL and MCL-1 oncogenes in pancreatic tumor xenografts. Pancreatic tumor xenografts were generated in athymic nude mice by subcutaneous (sc) injection of HPAFII human pancreatic cancer cells. […] The presence of MNPs (iron) in tumors was determined by Prussian Blue staining. Original Magnifications 200×.
(§3) We then tested to effect of MNP-curcumin formulation on the expression of Bcl-xL and MCL-1 oncogenes in pancreatic tumor xenografts. Pancreatic tumor xenografts were generated in athymic nude mice by subcutaneous (sc) injection of HPAFII human pancreatic cancer cells.

Experiment [7] deals with MCL-1. The experiment in a line: IHC of MCL-1 expression in pancreatic tumor xenografts. Format: in vivo, athymic nude mice. Conditions: intra-tumoral at day 20. The method, then:
as §2, §3

Turning to `COc1cc(/C=C/C(=O)CC(=O)/C=C/c2ccc(O)c(OC)c2)ccc1O` [curcumin, (E,E)-1,7-bis(4-Hydroxy-3-methoxyphenyl)-1,6-heptadiene-3,5-dione], the IC50 was found to be 12.6 µM in experiment [1], 18.8 µM in experiment [2] and 10.6 µM in experiment [3]. For the same compound, in experiment [4], the PARP cleavage result was “considerable cleavage”. Besides, in experiment [5], the “ultrastructural changes (vacuole formation)” value is “formation of endosomal-lysosomal-vacules”. Further, the “expression of Bcl-xL oncogene in tumor xenografts” value in experiment [6] was “effectively inhibited the expression”. Besides, the “expression of MCL-1 oncogene in tumor xenografts” value in experiment [7] is reported as “effectively inhibited the expression”.
